Laboratory results taken from patent US20220380314A1, “SUBSTITUTED, SATURATED AND UNSATURATED N-HETEROCYCLIC CARBOXAMIDES AND RELATED COMPOUNDS FOR THEIR USE IN THE TREATMENT OF MEDICAL DISORDERS” (Bial - R&D Investments, S.A., priority 2019, published 2022).
≈ marks a conversion by molar mass, not a printed value.

Experiments:
[1] = target: T1, acid ceramidase (hACR) (Homo sapiens, UniProt Q13510); assay: Acid ceramidase inhibition, biochemical fluorescent assay with cell lysates overexpressing acid ceramidase, substrate Rbm14-12; settings: cell lysates overexpressing acid ceramidase; 1 hr preincubation at RT; pH 4.5; substrate Rbm14-12 6.3 μM; read-out: hACR IC50
T1 construct: expressed in transfected cells; cell lysate used
T1 sequence (Q13510 143-395 limits assumed): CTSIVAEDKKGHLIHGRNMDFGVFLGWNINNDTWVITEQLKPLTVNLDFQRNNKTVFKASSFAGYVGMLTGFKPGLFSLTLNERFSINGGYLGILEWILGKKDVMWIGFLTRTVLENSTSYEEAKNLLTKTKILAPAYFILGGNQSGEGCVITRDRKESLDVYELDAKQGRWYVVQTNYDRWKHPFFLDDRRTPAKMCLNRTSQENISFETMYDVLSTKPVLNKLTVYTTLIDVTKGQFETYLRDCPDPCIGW
T1 sequence (Q13510 22-142 limits assumed): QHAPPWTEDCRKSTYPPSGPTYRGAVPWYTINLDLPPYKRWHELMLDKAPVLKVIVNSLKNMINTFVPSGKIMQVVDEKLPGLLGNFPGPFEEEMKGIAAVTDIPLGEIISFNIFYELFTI
Experimental: The ability of exemplary compounds to inhibit acid ceramidase was measured.
Cell lysates overexpressing acid ceramidase were used as the enzyme source for compound potency determination in a biochemical fluorescent assay. Briefly, compounds were preincubated with 10 µg protein of cell lysates in a dose-response manner for 1 hr at RT in the assay buffer containing 25 mM NaAC and 100 mM NaCl, pH 4.5. The reaction was initiated by the addition of substrate Rbm14-12 at a final concentration of 6.3 μM. The reaction was run at RT for 1 hr before it was stopped by the addition of the stopping buffer containing 20% methanol (v/v), 1 mg/ml NaIO4, 0.1 M glycine, pH 10.6. The samples were incubated with the stopping buffer at RT for 1 hr to allow the fluorescent product to be formed. Finally the plate was read with SpectraMax i3 plate reader (Molecular Devices) at ex360 nm and em446 nm. Data were collected and used to determine the IC50 values of compounds by curve fitting to the four-parameter inhibition equation.
The symbol “A” indicates inhibition of less than 0.2 μM; the symbol “B” indicates inhibition in the range of 0.2 μM up to 1 μM; and the symbol “C” indicates inhibition of greater than 1 μM.

[2] = Compound solubility in water; assay type: physicochemical

Row | Structure (SMILES) | IC50 [1] [nM] | solubility [2] [µM]
1 | CC1(C)CC(c2ccccc2)CCN1C(=O)NCCCCc1ccccc1 (centres unmarked) [Example 74, 2,2-Dimethyl-4-phenyl-N-(4-phenylbutyl)piperidine-1-carboxamide] | < 200 | 0.2 (≈ 0.0729 µg/mL)
2 | COc1ccc(C2COCC(C)(C)N2C(=O)NCC2CC2)cc1 (centres unmarked) [Example 144, N-(Cyclopropylmethyl)-5-(4-methoxyphenyl)-3,3-dimethylmorpholine-4-carboxamide] | < 200 | 97.8 (≈ 31.1 µg/mL)
3 | CC1(C)CC2(CCCCO2)CCN1C(=O)NCCc1ccccc1 (centres unmarked) [Example 17, 8,8-Dimethyl-N-phenethyl-1-oxa-9-azaspiro[5.5]undecane-9-carboxamide] | 200 to 1000 | 28.5 (≈ 9.42 µg/mL)
4 | CCCCCNC(=O)N1C(C)COCC1(C)C (centres unmarked) [Example 132, 3,3,5-Trimethyl-N-pentylmorpholine-4-carboxamide] | < 200 | 88.3 (≈ 21.4 µg/mL)
5 | CC1(C)CC(F)=CCN1C(=O)NCCCc1ccccc1 [Example 62, 4-fluoro-2,2-dimethyl-N-(3-phenylpropyl)-3,6-dihydropyridine-1(2H)-carboxamide] | > 1000 | 15 (≈ 4.36 µg/mL)
6 | O=C(NCCCc1ccc(F)cc1F)N1CCCCC12CCCC2 [Example 59, N-(3-(2,4-difluorophenyl)propyl)-6-azaspiro[4.5]decane-6-carboxamide] | < 200 | 1.1 (≈ 0.37 µg/mL)
7 | CC1(C)CCCN1C(=O)NCCc1ccccc1 [Example 54, 2,2-Dimethyl-N-phenethylpyrrolidine-1-carboxamide] | > 1000 | 25.6 (≈ 6.31 µg/mL)
8 | O=C(NCCc1ccccc1)N1CCCCC12CCC2 [Example 46, N-Phenethyl-5-azaspiro 3.5 nonane-5-carboxamide] | > 1000 | 17.5 (≈ 4.77 µg/mL)
9 | CN(C(=O)NCCCC1(C(F)(F)F)CC1)C12CCC(CC1)CC2 [Example 71, 1-(Bicyclo[2.2.2]octan-1-yl)-1-methyl-3-(3-(1-(trifluoromethyl)cyclopropyl)propyl)urea] | 200 to 1000 | 5.9 (≈ 1.96 µg/mL)
10 | CCCCCNC(=O)N1[C@H](C)CN(C2CC2)C[C@@H]1C [Example 115, (2S,6R)-4-cyclopropyl-2,6-dimethyl-N-pentylpiperazine-1-carboxamide] | < 200 | 69.1 (≈ 18.5 µg/mL)
11 | CC(C)CCNC(=O)N1CCN(c2ccccc2)CC1(C)C [Example 42, N-iso-Pentyl-2,2-dimethyl-4-phenylpiperazine-1-carboxamide] | > 1000 | 7 (≈ 2.12 µg/mL)
12 | CN1CCC(c2cccc3c2CN(C(=O)NCCc2ccccc2)C(C)(C)C3)CC1 [Example 20, 3,3-Dimethyl-8-(1-methylpiperidin-4-yl)-N-phenethyl-3,4-dihydroisoquinoline-2(1H)-carboxamide] | 200 to 1000 | 32.2 (≈ 13.1 µg/mL)
13 | CC1(C)CC(c2ccccc2)CCN1C(=O)NCCOCc1ccccc1 (centres unmarked) [Example 75, N-(2-Benzyloxyethyl)-2,2-dimethyl-4-phenylpiperidine-1-carboxamide] | > 1000 | 7.1 (≈ 2.6 µg/mL)
14 | CCCCNC(=O)N1c2cccc(N3CCN(C)CC3)c2CCC1(C)C [Example 33, N-Butyl-2,2-dimethyl-5-(4-methylpiperazin-1-yl)-3,4-dihydroquinoline-1(2H)-carboxamide] | 200 to 1000 | 22.7 (≈ 8.14 µg/mL)
15 | CCCCNC(=O)N1CCC(OC2CCN(C)CC2)CC1(C)C (centres unmarked) [Example 39, N-Butyl-2,2-dimethyl-4-((1-methylpiperidin-4-yl)oxy)piperidine-1-carboxamide] | > 1000 | 34.8 (≈ 11.3 µg/mL)
16 | CC1(C)CC(c2ccccn2)CCN1C(=O)NCCCCc1ccccc1 (centres unmarked) [Example 79, 2,2-Dimethyl-N-(4-phenylbutyl)-4-(2-pyridyl)piperidine-1-carboxamide] | > 1000 | 6.4 (≈ 2.34 µg/mL)
17 | CC1(C)CC(N2CCC(F)(F)CC2)CCN1C(=O)NCCCCc1ccccc1 (centres unmarked) [Example 86, 4-(4,4-Difluoro-1-piperidyl)-2,2-dimethyl-N-(4-phenylbutyl)piperidine-1-carboxamide] | < 200 | 31 (≈ 12.6 µg/mL)
18 | COC1CCN(C(=O)NCCc2ccccc2)C(C)(C)C1 (centres unmarked) [Example 36, 4-Methoxy-2,2-dimethyl-N-phenethylpiperidine-1-carboxamide] | – | 33.4 (≈ 9.7 µg/mL)
19 | CC1(C)CN(c2ccccn2)CCN1C(=O)NCCCCc1ccccc1 [Example 104, 2,2-Dimethyl-N-(4-phenylbutyl)-4-(2-pyridyl)piperazine-1-carboxamide] | > 1000 | –

Second part, the compound after the results:

Row | IC50 [1] [nM] | solubility [2] [µM] | Structure (SMILES)
20 | 200 to 1000 | 40.2 (≈ 14.6 µg/mL) | CN1CC(c2ccc3c(c2)N(C(=O)NCc2ccccc2)C(C)(C)CC3)C1 [Example 65, N-benzyl-2,2-dimethyl-7-(1-methylazetidin-3-yl)-3,4-dihydroquinoline-1(2H)-carboxamide]
21 | 200 to 1000 | 33.2 (≈ 13.5 µg/mL) | CN1CCC(c2ccc3c(c2)N(C(=O)NCCc2ccccc2)C(C)(C)CC3)CC1 [Example 1, 2,2-Dimethyl-7-(1-methylpiperidin-4-yl)-N-phenethyl-3,4-dihydroquinoline-1(2H)-carboxamide]
22 | 200 to 1000 | 38.5 (≈ 14 µg/mL) | CN1CC(c2cccc3c2CCC(C)(C)N3C(=O)NCc2ccccc2)C1 [Example 66, N-Benzyl-2,2-dimethyl-5-(1-methylazetidin-3-yl)-3,4-dihydroquinoline-1(2H)-carboxamide]
23 | 200 to 1000 | 6.7 (≈ 2.17 µg/mL) | CN1CC(C)(C)N(C(=O)NCCc2ccccc2)c2ccccc21 [Example 7, 2,2,4-Trimethyl-N-phenethyl-3,4-dihydroquinoxaline-1(2H)-carboxamide]
24 | > 1000 | 27.4 (≈ 8.48 µg/mL) | CC1(C)CCc2cccnc2N1C(=O)NCCc1ccccc1 [Example 8, 2,2-Dimethyl-N-phenethyl-3,4-dihydro-1,8-naphthyridine-1(2H)-carboxamide]
25 | – | 28.7 (≈ 7.53 µg/mL) | COCCNC(=O)N1c2ccccc2CCC1(C)C [Example 32, N-(2-Methoxyethyl)-2,2-dimethyl-3,4-dihydroquinoline-1(2H)-carboxamide]
26 | > 1000 | 26.6 (≈ 10.3 µg/mL) | Cn1ccnc1-c1ccc2c(c1)N(C(=O)NCCc1ccccc1)C(C)(C)CC2 [Example 12, 2,2-Dimethyl-7-(1-methyl-1H-imidazol-2-yl)-N-phenethyl-3,4-dihydroquinoline-1(2H)-carboxamide]
27 | 200 to 1000 | 6.5 (≈ 2.2 µg/mL) | COC1CC(C)(C)N(C(=O)NCCc2ccccc2)c2ccccc21 (centres unmarked) [Example 19, 4-Methoxy-2,2-dimethyl-N-phenethyl-3,4-dihydroquinoline-1(2)-carboxamide]
28 | > 1000 | 6.7 (≈ 2.64 µg/mL) | CC1(C)CCc2ccc(N3CCOCC3)cc2N1C(=O)NCCc1ccccc1 [Example 10, 2,2-Dimethyl-7-morpholino-N-phenethyl-3,4-dihydroquinoline-1(2H)-carboxamide]
29 | < 200 | 8.2 (≈ 2.78 µg/mL) | COc1cccc2c1N(C(=O)NCCc1ccccc1)C(C)(C)CC2 [Example 68, 8-Methoxy-2,2-dimethyl-N-phenethyl-3,4-dihydroquinoline-1(2H)-carboxamide]
30 | > 1000 | 3.1 (≈ 0.999 µg/mL) | CC1(C)CC(=O)c2ccccc2N1C(=O)NCCc1ccccc1 [Example 28, 2,2-Dimethyl-4-oxo-N-phenethyl-3,4-dihydroquinoline-1(2H)-carboxamide]
31 | 200 to 1000 | 0.9 (≈ 0.328 µg/mL) | CC1(C)CCc2c(C3COC3)cccc2N1C(=O)NCCc1ccccc1 [Example 51]
32 | > 1000 | 35.5 (≈ 15.4 µg/mL) | CN1CC(N2CC(c3ccc4c(c3)N(C(=O)NCCc3ccccc3)C(C)(C)CC4)C2)C1 [Example 69, 2,2-Dimethyl-7-(1′-methyl-[1,3′-biazetidin]-3-yl)-N-phenethyl-3,4-dihydroquinoline-1(2H)-carboxamide]
33 | 200 to 1000 | 33.6 (≈ 13.6 µg/mL) | CN1CCC(c2ccc3c(c2)CCC(C)(C)N3C(=O)NCCc2ccccc2)CC1 [Example 23, 2,2-Dimethyl-6-(1-methylpiperidin-4-yl)-N-phenethyl-3,4-dihydroquinoline-1(2H)-carboxamide]
34 | > 1000 | 25.2 (≈ 7.8 µg/mL) | CC1(C)CCc2ncccc2N1C(=O)NCCc1ccccc1 [Example 9, 2,2-Dimethyl-N-phenethyl-3,4-dihydro-1,5-naphthyridine-1(2H)-carboxamide]
35 | 200 to 1000 | 5 (≈ 1.82 µg/mL) | CC1(C)CCc2ccc(C3COC3)cc2N1C(=O)NCCc1ccccc1 [Example 52]
36 | 200 to 1000 | 1.5 (≈ 0.487 µg/mL) | CC1(C)CCc2ccccc2N1C(=O)NCCOc1ccccc1 [Example 18, 2,2-Dimethyl-N-(2-phenoxyethyl)-3,4-dihydroquinoline-1(2)-carboxamide]
37 | 200 to 1000 | 8.1 (≈ 3.19 µg/mL) | CC1(C)CCc2c(N3CCOCC3)cccc2N1C(=O)NCCc1ccccc1 [Example 11, 2,2-Dimethyl-5-morpholino-N-phenethyl-3,4-dihydroquinoline-1(2H)-carboxamide]
